Measured values published in patent publication US10961215B2, “N-aryl and N-heteroaryl piperidine derivatives as liver X receptor beta agonists, compositions, and their use” (Merck Sharp & Dohme Corp., priority 2016, dated 2021).
pEC50: −log10 of the molar value.

How the values were obtained:
[1] = target: T1, GST tagged LXRbeta LBD (ligand binding domain) (Homo sapiens, UniProt P55055); assay: LanthaScreen TR-FRET Liver X Receptor Coactivator Assay, LXR beta-LBD (co-activator recruitment; IP and % Emax relative to T0901317); type: biochemical; details: for pEC50: Inflection Point of co-activator recruitment, LXR beta-LBD, TR-FRET; for Emax: efficacy at max dose in relation to reference T0901317, LXR beta-LBD, read-out: LXR beta actiivty at max dose (%)
T1 construct: purchased Invitrogen pv4658.pps
T1 sequence (P55055 222-460 limits assumed): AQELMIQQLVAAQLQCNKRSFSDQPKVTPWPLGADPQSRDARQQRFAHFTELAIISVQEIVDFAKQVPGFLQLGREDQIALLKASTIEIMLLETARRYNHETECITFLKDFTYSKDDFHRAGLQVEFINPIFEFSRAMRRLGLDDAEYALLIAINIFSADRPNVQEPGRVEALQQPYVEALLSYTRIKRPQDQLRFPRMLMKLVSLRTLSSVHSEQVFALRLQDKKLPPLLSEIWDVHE
Summary of the method: (§1)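 TR-FRET coactivator recruitment; LBD + cpd, then fluorescein coactivator peptide/Tb anti-GST Ab mix; RT incubation; IP and Emax vs T0901317.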

[2] = target: T2, GST tagged LXRalpha LBD (ligand binding domain) (Homo sapiens, UniProt Q13133); assay: LanthaScreen TR-FRET Liver X Receptor Coactivator Assay, LXR alpha-LBD (co-activator recruitment; IP and % Emax relative to T0901317); type: biochemical; details: for pEC50 / LXR alpha IP (nM): Inflection Point of co-activator recruitment, LXR alpha-LBD, TR-FRET; for Emax: efficacy at max dose in relation to reference T0901317, LXR alpha-LBD, read-out: LXR alpha actiivty at max dose (%)
T2 construct: purchased Invitrogen pv4655
T2 sequence (Q13133 209-447 limits assumed): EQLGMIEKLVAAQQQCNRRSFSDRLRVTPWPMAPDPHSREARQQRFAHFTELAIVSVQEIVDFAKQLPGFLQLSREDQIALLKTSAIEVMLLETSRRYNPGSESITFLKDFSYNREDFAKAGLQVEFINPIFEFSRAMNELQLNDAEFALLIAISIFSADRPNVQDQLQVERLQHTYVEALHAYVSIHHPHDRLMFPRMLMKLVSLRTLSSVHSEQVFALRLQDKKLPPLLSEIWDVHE
Summary of the method: as §1

Structure (SMILES): CN(CC[C@H]1CC12CCN(c1ccc(C(=O)NC3CC3)c(Cl)c1)CC2)C(=O)[C@](O)(c1ccccc1)C(F)(F)F [Example 7-11, 2-chloro-N-cyclopropyl-4-((R)-1-(2-((R)-3,3,3-trifluoro-2-hydroxy-N-methyl-2-phenylpropanamido)ethyl)-6-azaspiro[2.5]octan-6-yl)benzamide]
- pEC50 [1]: 7.09
- Emax [1]: 60%
- pEC50 [2]: 5.94
- Emax [2]: 42%

Structure (SMILES): COc1cccc([C@@](O)(C(=O)N(C)CC[C@H]2CC23CCN(c2ccc(C(=O)NC4CC4)c(Cl)n2)CC3)C(F)(F)F)c1 [Example 7-16, 2-chloro-N-cyclopropyl-6-((R)-1-(2-((R)-3,3,3-trifluoro-2-hydroxy-2-(3-methoxyphenyl)-N-methylpropanamido)ethyl)-6-azaspiro[2.5]octan-6-yl)nicotinamide]
- pEC50 [1]: 7.00
- Emax [1]: 54%
- pEC50 [2]: 5.75
- Emax [2]: 40%

Structure (SMILES): CN(C)C(=O)c1ccc(N2CCC(CCCN(C)C(=O)C(O)(c3cccc(O)c3)C(F)(F)F)CC2)nc1Cl (centres unmarked) [Example 1-45, 2-chloro-N,N-dimethyl-6-(4-(3-(3,3,3-trifluoro-2-hydroxy-2-(3-hydroxyphenyl)-N-methylpropanamido)propyl)piperidin-1-yl)nicotinamide]
- pEC50 [1]: 7.35
- Emax [1]: 82%
- pEC50 [2]: 5.60
- Emax [2]: 32%

Structure (SMILES): COc1cccc([C@@](O)(C(=O)N(C)CCCC2CCN(c3ccc(C(=O)N(C)C)c(C4CC4)n3)CC2)C(F)(F)F)c1 [Example 2-17, (R)-2-cyclopropyl-N,N-dimethyl-6-(4-(3-(3,3,3-trifluoro-2-hydroxy-2-(3-methoxyphenyl)-N-methylpropanamido)propyl)piperidin-1-yl)nicotinamide]
- pEC50 [1]: 5.24
- Emax [1]: 22%
- LXR alpha IP (nM) [2]: No IP
- Emax [2]: 0%

Structure (SMILES): COc1cccc([C@@](O)(C(=O)N(C)CCCC2CCN(c3ccc(C(=O)N(C)CCn4cncn4)c(Cl)n3)CC2)C(F)(F)F)c1 [Example 2-14]
- pEC50 [1]: 7.08
- Emax [1]: 67%
- LXR alpha IP (nM) [2]: No IP
- Emax [2]: 14%

Structure (SMILES): CN(C)C(=O)c1ccc(N2CCC(CCCN(C)C(=O)[C@](O)(c3cccc(C4CC4)c3)C(F)(F)F)CC2)nc1Cl [Example 1-33, (R)-2-chloro-6-(4-(3-(2-(3-cyclopropylphenyl)-3,3,3-trifluoro-2-hydroxy-N-methylpropanamido)propyl)piperidin-1-yl)-N,N-dimethylnicotinamide]
- pEC50 [1]: 7.77
- Emax [1]: 70%
- LXR alpha IP (nM) [2]: No IP
- Emax [2]: 0%

Structure (SMILES): CN(C)C(=O)c1ccc(N2CCC(CCCN(C)C(=O)[C@@]3(c4ccccc4)CCOC3)CC2)nc1Cl [Example 1-55, (R)-2-chloro-N,N-dimethyl-6-(4-(3-(N-methyl-3-phenyltetrahydrofuran-3-carboxamido)propyl)piperidin-1-yl)nicotinamide]
- pEC50 [1]: 6.07
- Emax [1]: 48%
- LXR alpha IP (nM) [2]: No IP
- Emax [2]: 16%

Structure (SMILES): COc1cccc([C@@](O)(C(=O)N(C)CCC2CC23CCN(c2ccc(C(=O)NC(C)C)c(Cl)n2)CC3)C(F)(F)F)c1 (stereo in doubt) [Example 7-19, 2-chloro-N-isopropyl-6-((R)-1-(2-((R)-3,3,3-trifluoro-2-hydroxy-2-(3-methoxyphenyl)-N-methylpropanamido)ethyl)-6-azaspiro[2.5]octan-6-yl)nicotinamide]
- pEC50 [1]: 7.12
- Emax [1]: 58%
- pEC50 [2]: 6.16
- Emax [2]: 27%

Structure (SMILES): CN(C)C(=O)c1ccc(N2CCC(CCCN(C)C(=O)[C@@]3(c4ccccc4Cl)CCCO3)CC2)nc1Cl [Example 1-64, (S)-2-chloro-6-(4-(3-(2-(2-chlorophenyl)-N-methyltetrahydrofuran-2-carboxamido)propyl)piperidin-1-yl)-N,N-dimethylnicotinamide]
- pEC50 [1]: 6.55
- Emax [1]: 26%
- LXR alpha IP (nM) [2]: No IP
- Emax [2]: 0%

Structure (SMILES): CN(C)C(=O)c1ccc(N2CCC(CCCN(C)C(=O)[C@]3(c4ccccc4F)CCCO3)CC2)nc1Cl [Example 1-6, (R)-2-chloro-6-(4-(3-(2-(2-fluorophenyl)-N-methyl-tetrahydrofuran-2-carboxamido)propyl)piperidin-1-yl)-N,N-dimethylnicotinamide]
- pEC50 [1]: 7.19
- Emax [1]: 80%
- pEC50 [2]: 5.84
- Emax [2]: 27%

Structure (SMILES): COc1cccc([C@@](O)(C(=O)N(C)CCCC2CCN(c3ccc(C(=O)N4CC[C@@H](CO)C4)c(Cl)n3)CC2)C(F)(F)F)c1 [Example 2-7, (R)-N-(3-(1-(6-chloro-5-((R)-3-(hydroxymethyl)pyrrolidine-1-carbonyl)pyridin-2-yl)piperidin-4-yl)propyl)-3,3,3-trifluoro-2-hydroxy-2-(3-methoxyphenyl)-N-methylpropanamide]
- pEC50 [1]: 6.38
- Emax [1]: 43%
- LXR alpha IP (nM) [2]: No IP
- Emax [2]: 4%

Structure (SMILES): COc1cccc([C@@](O)(C(=O)NC[C@H](C)CC2CCN(c3ccc(C(=O)N(C)C)c(Cl)n3)CC2)C(F)(F)F)c1 [Example 3-5]
- pEC50 [1]: 6.81
- Emax [1]: 57%
- pEC50 [2]: 5.54
- Emax [2]: 22%

Structure (SMILES): CN(C)C(=O)c1ccc(N2CCC([C@H]3C[C@H](N(C)C(=O)[C@](O)(c4cccc(C5CC5)c4)C(F)(F)F)C3)CC2)nc1Cl [Example 17-1, 2-chloro-6-(4-((1R,3r)-3-((R)-2-(3-cyclopropylphenyl)-3,3,3-trifluoro-2-hydroxy-N-methylpropanamido)cyclobutyl)piperidin-1-yl)-N,N-dimethylnicotinamide]
- pEC50 [1]: 7.74
- Emax [1]: 76%
- LXR alpha IP (nM) [2]: No IP
- Emax [2]: 14%

Structure (SMILES): COc1cccc([C@@](O)(C(=O)N(C)CCCC2CCN(c3ccc(C(=O)N4CCCC4)c(Cl)n3)CC2)C(F)(F)F)c1 [Example 2-6, (R)-N-(3-(1-(6-chloro-5-(pyrrolidine-1-carbonyl)pyridin-2-yl)piperidin-4-yl)propyl)-3,3,3-trifluoro-2-hydroxy-2-(3-methoxyphenyl)-N-methylpropanamide]
- pEC50 [1]: 6.90
- Emax [1]: 50%
- LXR alpha IP (nM) [2]: No IP
- Emax [2]: 0%

Structure (SMILES): COc1cccc([C@@](O)(C(=O)N[C@@H](C)CCC2CCN(c3ccc(C(=O)N(C)C)c(Cl)n3)CC2)C(F)(F)F)c1 [Example 6-1, 2-chloro-N,N-dimethyl-6-(4-((S)-3-((R)-3,3,3-trifluoro-2-hydroxy-2-(3-methoxyphenyl)propanamido)butyl)piperidin-1-yl)nicotinamide]
- pEC50 [1]: 6.42
- Emax [1]: 25%
- LXR alpha IP (nM) [2]: No IP
- Emax [2]: 0%

Structure (SMILES): CN(C)C(=O)c1ccc(N2CCC(CCCN(C)C(=O)C(O)C(F)(F)F)CC2)nc1Cl (centres unmarked) [Example 1-52, 2-chloro-N,N-dimethyl-6-(4-(3-(3,3,3-trifluoro-2-hydroxy-N-methylpropanamido)propyl)piperidin-1-yl)nicotinamide]
- pEC50 [1]: 5.30
- Emax [1]: 46%
- LXR alpha IP (nM) [2]: No IP
- Emax [2]: 11%

Structure (SMILES): COc1cccc([C@@](O)(C(=O)N(C)CCCC2CCN(c3ccc(C(=O)N(C)C4CC4)c(Cl)n3)CC2)C(F)(F)F)c1 [Example 2-3, (R)-2-chloro-N-cyclopropyl-N-methyl-6-(4-(3-(3,3,3-trifluoro-2-hydroxy-2-(3-methoxyphenyl)-N-methylpropanamido)propyl)piperidin-1-yl)nicotinamide]
- pEC50 [1]: 6.97
- Emax [1]: 42%
- LXR alpha IP (nM) [2]: No IP
- Emax [2]: 0%

Structure (SMILES): COc1cccc([C@@](O)(C(=O)N(C)CCCC2CCN(c3ccc(C(=O)N4C(C)CCC4C)c(Cl)n3)CC2)C(F)(F)F)c1 (stereo partly drawn) [Example 2-10, (2R)-N-(3-(1-(6-chloro-5-(2,5-dimethylpyrrolidine-1-carbonyl)pyridin-2-yl)piperidin-4-yl)propyl)-3,3,3-trifluoro-2-hydroxy-2-(3-methoxyphenyl)-N-methylpropanamide]
- pEC50 [1]: 6.87
- Emax [1]: 43%
- LXR alpha IP (nM) [2]: No IP
- Emax [2]: 0%

Structure (SMILES): CN(C)C(=O)c1ccc(N2CCC(CCCN(C)C(=O)[C@]3(c4ccccc4)CCCO3)CC2)nc1Cl [Example 1-10, (R)-2-chloro-N,N-dimethyl-6-(4-(3-(N-methyl-2-phenyl-tetrahydrofuran-2-carboxamido)propyl)piperidin-1-yl)nicotinamide]
- pEC50 [1]: 7.14
- Emax [1]: 71%
- LXR alpha IP (nM) [2]: No IP
- Emax [2]: 9%

Structure (SMILES): CN(C)C(=O)c1ccc(N2CCC(CCCN(C)C(=O)C3(c4ccccc4)OCCO3)CC2)nc1Cl [Example 1-14, 2-chloro-N,N-dimethyl-6-(4-(3-(N-methyl-2-phenyl-1,3-dioxolane-2-carboxamido)propyl)piperidin-1-yl)nicotinamide]
- pEC50 [1]: 6.44
- Emax [1]: 19%
- LXR alpha IP (nM) [2]: No IP
- Emax [2]: 0%
